Experimental data: PMC13351859 (Biophysical Journal, 2026)

Molecular target: T1, LASV FD (Lassa virus fusion domain, G260-N295) (Lassa virus Josiah, UniProt P08669)
T1 construct: gene GPC
Assay: biochemical
Assay type: binding

T1 sequence (P08669 260-295 limits assumed): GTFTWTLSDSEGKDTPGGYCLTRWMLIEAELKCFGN

## CCCCCCCC/C=C\CCCCCCCC(=O)O[C@H](COC(=O)CCCCCCCCCCCCCCC)COP(=O)([O-])OCC[N+](C)(C)C [POPC, 1-palmitoyl-2-oleoyl-glycero-3-phosphocholine]
  Kd: 657 ± 17 µM
